Measured values reported in article PMC12055592, “Post-symptomatic NLRP3 inhibition rescues cognitive impairment and mitigates amyloid and tau driven neurodegeneration” (Npj Dementia, 2025).

Key:
[1] = test system: TNFα in iPSC-derived microglia; assay: iPSC-derived microglia in vitro assay, secreted TNFα (specificity); assay type: cell-based; settings: for IC50: Microglia
Method: iPSC-derived microglia (BX-0900, BrainXell, Madison, WI) were thawed and recovered as per the supplier’s instructions. Briefly, viable cells were counted post-thaw using Trypan Blue, 0.4% (Thermo Fisher Scientific) and 25,000 cells were seeded on poly-d-lysine coated 96-well plates in DMEM-F/12 medium (Thermo Fisher Scientific) supplemented with 1X B-27 supplement (Thermo Fisher Scientific), 1X N-2 supplement (Thermo Fisher Scientific), 1X Non-essential amino acids (Thermo Fisher Scientific), 1X Chemically defined lipid mix (Thermo Fisher Scientific), 1 mM GlutaMax (Thermo Fisher Scientific), 0.2 mM Ascorbic Acid (Millipore), 100 ng/mL IL-34 (PeproTech, Cranbury, NJ), 2 ng/mL TGF-β1 (PeproTech) and 20 ng/mL M-CSF (PeproTech). Fresh media was added 3 days after seeding, half of which was replenished with fresh media 6 days following seeding. The assay was performed 7 days after cells were seeded in 96-well plates. Two assay protocol variations were performed: cells were either pre-treated with VEN-02XX to block NLRP3 inflammasome formation and then primed with LPS (Fig. 1, D. Compound added before LPS priming) or were primed with LPS and then treated with VEN-02XX (Fig. 1, D. Compound added after LPS priming). For compound treatment, cells were treated with VEN-02XX for 1 h (top concentration 100 µM; 3-fold titration) to block NLRP3 inflammasome formation. For LPS priming, cells were primed with 100 ng/mL LPS (E.coli O26:B6, Millipore) for 4 h. At the end of either protocol, cells were stimulated with 10 uM Nigericin (Millipore) for 1 h, after which conditioned media was collected for analysis of secreted IL-1β, IL-18 and TNFα in an electrochemiluminescence immunoassay (Mesoscale Discovery).

5XFAD/Rubicon KO mice = assay: Brain immunohistochemistry (Iba1, Aβ, pTau S396, NeuN) in 5XFAD/Rubicon KO mice; assay type: in vivo, mouse; settings: 9 weeks PO QD
Method: 5XFAD/Rubicon KO mice received vehicle (0.5% w/v methylcellulose/0.1% w/v Tween® 80 in water) or VEN-02XX (0.01, 1, or 20 mg/kg) every day by oral gastric gavage for 9 weeks.
Following post-mortem collection, the brain was placed in a mouse brain matrix and sliced along the sagittal suture to separate the hemispheres. The left hemisphere was immediately processed for downstream biochemical analyses by snap freezing in liquid nitrogen. The right half was drop-fixed in 4% PFA in PBS for 24 h and then washed 5x in fresh PBS before being submerged in 30% sucrose cryoprotectant solution for 24 h. After 24 h, brains were frozen in cryomolds in a 2:1 mixture of 30% sucrose and optimal cutting temperature compound (OCT), cryomolds were stored at −80 °C until use. For slide preparation, brains were allowed to acclimatize to −20 °C in a Thermo Shandon cryotome. After equilibration at −20 °C, tissue was cryostat sectioned at 25 μm (cortex) or 40 μm (free floating sections for hippocampus). Steam-mediated antigen retrieval was performed using 1x citrate buffer. Sections were rinsed in PBS, blocked in 3% bovine serum albumin/0.2% Triton X-100/PBS for 1 h, and incubated with primary antibodies in blocking buffer overnight at 4 °C (1:200 goat anti-Iba1 [Novus Biologicals, Centennial, CO], 1:500 mouse anti-Aβ 82E1 MOAB [Immuno-Biological Laboratories, Inc., Spring Lake Park, MN], 1:200 rabbit anti-pTau S396 [Cell Signaling, Danvers, MA], 1:200 mouse anti-NeuN [Cell Signaling]). Sections were incubated with appropriate secondary antibodies (Jackson ImmunoResearch, West Grove, PA) for 1 h at room temperature. For the complete list of antibodies please reference Supplementary Table 2. ProLong™ Diamond or ProLong™ Gold Antifade Mountant with or without 4’,6-diamidino-2-phenylindole (DAPI) counterstain (Thermo Fisher Scientific, Waltham, MA). Slides were imaged on a Zeiss Axio-observer A1 inverted microscope with an Andor iXon EMCCD camera and X-Cite LED fluorescence unit. Image analysis was performed using Fiji and 3DMorph AnalyzeSkeleton for microglial analyses.

CC(C)(O)CNc1nnc(-c2ccc(Cl)cc2C(F)(F)F)c2ccncc12 [VEN-02XX]
IC50 ([1]; compound added after LPS priming): > 10 µM
IC50 ([1]; compound added before LPS priming): > 30 µM
TNFα inhibition in cellular assay ([1]; specificity, in words): lack of TNFα inhibition
microglial branch length (5XFAD/Rubicon KO mice; 20 mg/kg, 3DMorph): significant increases in microglial branch length
pTau S396 signal (5XFAD/Rubicon KO mice; 20 mg/kg, cortex and CA3 region of hippocampus): almost complete suppression in pTau signal
microglia/plaque association (co-localization of Iba1 with amyloid) (5XFAD/Rubicon KO mice): robust disassociation of the microglia from the Aβ plaques
microglial soma volume (5XFAD/Rubicon KO mice; 3DMorph): commensurate decreases in soma volume in a dose-dependent and statistically significant manner
gross microglial morphology (5XFAD/Rubicon KO mice; Iba1 staining): transition from the disease-associated active ameboid morphology towards a homeostatic ramified morphology
CA3 and dentate gyrus thickness (5XFAD/Rubicon KO mice; NeuN stained sections): significantly increased both CA3 and dentate gyrus (DG) thickness
phosphorylated tau (pTau S396) mean area (5XFAD/Rubicon KO mice; cortex and CA3 region of hippocampus): dose-dependent and statistically significant reduction in phosphorylated tau
Iba1 mean area (microglial activation) (5XFAD/Rubicon KO mice; cortex and hippocampus): reduced the cumulative signal of the key microglial activation marker, Iba1, in both the cortex and hippocampus in a dose-dependent and statistically significant manner
NeuN+ cell count (neuronal numbers) (5XFAD/Rubicon KO mice; cortex and hippocampus): robust dose-dependent and statistically significant neuroprotective effect
Aβ plaque area/size (5XFAD/Rubicon KO mice; cortex and hippocampus, especially at higher doses): significant reduction in Aβ plaque area/size in both the cortex and hippocampus in a dose-dependent manner
Aβ plaque burden (cumulative plaque #) (5XFAD/Rubicon KO mice; cortex and hippocampus, did not reach statistical significance): trending reduction in Aβ plaque burden
